Values quoted from earlier work, collected in US20140356424A1, “COMPOSITION FOR TREATMENT OR REDUCTION OF SYMPTOMS RELATED TO PREMENSTRUAL SYNDROME (PMS), PREMENSTRUAL DISPHORIC DISORDER (PMDD), PREMENOPAUSE, MENOPAUSE OR FEMALE HORMONAL DISORDERS, IN A PHARMACEUTICAL COMPOSITION CONTAINING SAID FORM, AND PROCESS FOR PRODUCING SAID PHARMACEUTICAL FORM AND USE …” (EMS S.A., priority 2013, published 2014).

How the values were obtained:
[1] = system: women with a diagnosis of PMS; settings: calcium carbonate 1.0 g/day, after three months
premenstrual symptoms = settings: daily supplement of 200 mg of magnesium (as MgO)

Structure (SMILES): O=C([O-])[O-].[Ca+2] [calcium carbonate]
- complaints of headache, anxiety, agitation and irritability [1]: significant changes were not observed
- symptom of fatigue (questionnaire) ([1]; placebo 52.3%): 36%
- symptom of changes in appetite (questionnaire) ([1]; placebo 75%): 52.7%

Structure (SMILES): [O]=[Mg] [magnesium (as MgO), magnesium oxide]
- effect on severity of premenstrual symptoms (premenstrual symptoms): reduced mild premenstrual symptoms
